From patent US8846949B2, “Pyrrolopyrazoles as N-type calcium channel blockers” (Janssen Pharmaceutica NV, priority 2012, dated 2014)
Like-named read-outs stand apart in the source and are kept apart here.

Legend:
N-type calcium channel = molecular target: T1, N-type calcium channel (Homo sapiens, UniProt Q00975); test: Automated electrophysiology assay (QPatch-HT whole-cell patch clamp); format: cell-based
T1 construct: expressed in transfected cells
Procedure: Cells were grown in T175 flasks to 50%-90% confluence. At the time of use, cells were enzymatically treated with Detachin (Genlantis, San Diego, Calif. USA), centrifuged, rinsed, and resuspended in 293 SFM II media (Life Technologies, Grand Island, N.Y. U.S.A.) supplemented with 25 mM HEPES (Sigma-Aldrich, St. Louis, Mo. U.S.A.) to a concentration of 2-3×10^6 cells/mL. Cells were added to the automated cell preparation station on the QPatch-HT (Sophion Biosciences, North Brunswick, N.J. U.S.A.), and following a 10- to 30-min recovery period with gentle stirring, the assay protocol was initiated. During the automated cell preparation, cells were collected, centrifuged and resuspended in an extracellular (EC) solution containing 132 mM NaCl, 1.8 mM CaCl2, 5.4 mM KCl, 0.8 mM MgCl2, 10 mM glucose, and 10 mM HEPES (pH=7.4), adjusted with sucrose to approximately 315 m0sm. The QPlate was primed with an intracellular solution containing 135 mM CsCl, 10 mM EGTA, 4 MgATP, 0.3 NaGTP, and 20 mM HEPES (pH=7.2), adjusted to approximately 290 m0sm with deionized water and the EC solution. Cells were added to the prepared QPlate wells by robotic pipettes of the QPatch-HT.
For cells determined to be in stable whole-cell patch clamp, the EC solution was replaced with a barium (Ba)/triethylammonium (TEA) solution containing 140 mM TEA-Cl, 10 mM BaCl2, 0.8 mM MgCl2, 10 mM glucose and 10 mM HEPES (pH=7.4). High (40 mM) BaCl2 concentrations were made with adjustments to TEA-C1 (90 mM) to maintain the osmolarity. From a resting potential of −80 mV, a train of depolarizing pulses (15 pulses at 5 Hz, +20 mV) was delivered to the cell once every 30 sec for eight trains (4 min total), and the resulting currents were measured during a control period (no compound). This protocol was repeated for each subsequent addition of control buffer with or without compound (three periods total, each with four trains). The current generated in the 1st and 15th pulses of the last train of each period in the presence of each drug concentration was normalized to the current generated during the control period at the respective pulses (representing low- and high-frequency stimulation, respectively). Data from both the second and third drug application periods were analyzed for each cell. A final addition of Ba/TEA solution containing 60-100 μM CdCl2 was made to block all N-type current and to “zero” the currents for each cell. All buffer/compound additions were made using a “spitting” feature of the QPatch-HT, which added three repetitions of 5 μL solution at the beginning of each recording period.
To examine closed-state inactivation, cells were subjected to a channel-activating 50-msec depolarizing step pulse from −80 to +10 mV, followed by a 5-sec nonactivating step to voltages ranging from −130 to −60 mV in 10 mV increments and then a 50-ms step from −80 to +10 mV to assess the remaining current. Currents from the activating voltage pulse were normalized to the peak value of the test pulse following the −130 mV step and fit to a Boltzman equation to obtain the V1/2. Roscovitine (Sigma-Aldrich) was prepared as a 100 mM stock in dimethyl sulfoxide and diluted to the indicated working concentrations. […]. Compounds of Formula (I) were diluted first into dimethyl sulfoxide and then into 10% pluronic F-127 in water (Life Technologies), sonicated for 1 min and diluted into EC buffer. Vehicle controls were run in parallel in all experiments.
Unless otherwise indicated, statistics for comparing among electrophysiological results utilized a one-way analysis of variance with Fisher's least squares determination test for pair-wise comparison.

[1] = molecular target: T2, N-type calcium channel α1B (Cav2.2), β3 and α2δ subunits (Homo sapiens, UniProt Q00975); test: Functional assay, antagonism of N-type calcium channel (FDSS calcium mobilization response to KCl depolarization); format: cell-based; conditions: for IC50: HEK stable cell line, 50 mM KCl depolarization, six-point concentration-response
T2 construct: expressed in transfected cells
T2 sequence (Q00975 whole entry): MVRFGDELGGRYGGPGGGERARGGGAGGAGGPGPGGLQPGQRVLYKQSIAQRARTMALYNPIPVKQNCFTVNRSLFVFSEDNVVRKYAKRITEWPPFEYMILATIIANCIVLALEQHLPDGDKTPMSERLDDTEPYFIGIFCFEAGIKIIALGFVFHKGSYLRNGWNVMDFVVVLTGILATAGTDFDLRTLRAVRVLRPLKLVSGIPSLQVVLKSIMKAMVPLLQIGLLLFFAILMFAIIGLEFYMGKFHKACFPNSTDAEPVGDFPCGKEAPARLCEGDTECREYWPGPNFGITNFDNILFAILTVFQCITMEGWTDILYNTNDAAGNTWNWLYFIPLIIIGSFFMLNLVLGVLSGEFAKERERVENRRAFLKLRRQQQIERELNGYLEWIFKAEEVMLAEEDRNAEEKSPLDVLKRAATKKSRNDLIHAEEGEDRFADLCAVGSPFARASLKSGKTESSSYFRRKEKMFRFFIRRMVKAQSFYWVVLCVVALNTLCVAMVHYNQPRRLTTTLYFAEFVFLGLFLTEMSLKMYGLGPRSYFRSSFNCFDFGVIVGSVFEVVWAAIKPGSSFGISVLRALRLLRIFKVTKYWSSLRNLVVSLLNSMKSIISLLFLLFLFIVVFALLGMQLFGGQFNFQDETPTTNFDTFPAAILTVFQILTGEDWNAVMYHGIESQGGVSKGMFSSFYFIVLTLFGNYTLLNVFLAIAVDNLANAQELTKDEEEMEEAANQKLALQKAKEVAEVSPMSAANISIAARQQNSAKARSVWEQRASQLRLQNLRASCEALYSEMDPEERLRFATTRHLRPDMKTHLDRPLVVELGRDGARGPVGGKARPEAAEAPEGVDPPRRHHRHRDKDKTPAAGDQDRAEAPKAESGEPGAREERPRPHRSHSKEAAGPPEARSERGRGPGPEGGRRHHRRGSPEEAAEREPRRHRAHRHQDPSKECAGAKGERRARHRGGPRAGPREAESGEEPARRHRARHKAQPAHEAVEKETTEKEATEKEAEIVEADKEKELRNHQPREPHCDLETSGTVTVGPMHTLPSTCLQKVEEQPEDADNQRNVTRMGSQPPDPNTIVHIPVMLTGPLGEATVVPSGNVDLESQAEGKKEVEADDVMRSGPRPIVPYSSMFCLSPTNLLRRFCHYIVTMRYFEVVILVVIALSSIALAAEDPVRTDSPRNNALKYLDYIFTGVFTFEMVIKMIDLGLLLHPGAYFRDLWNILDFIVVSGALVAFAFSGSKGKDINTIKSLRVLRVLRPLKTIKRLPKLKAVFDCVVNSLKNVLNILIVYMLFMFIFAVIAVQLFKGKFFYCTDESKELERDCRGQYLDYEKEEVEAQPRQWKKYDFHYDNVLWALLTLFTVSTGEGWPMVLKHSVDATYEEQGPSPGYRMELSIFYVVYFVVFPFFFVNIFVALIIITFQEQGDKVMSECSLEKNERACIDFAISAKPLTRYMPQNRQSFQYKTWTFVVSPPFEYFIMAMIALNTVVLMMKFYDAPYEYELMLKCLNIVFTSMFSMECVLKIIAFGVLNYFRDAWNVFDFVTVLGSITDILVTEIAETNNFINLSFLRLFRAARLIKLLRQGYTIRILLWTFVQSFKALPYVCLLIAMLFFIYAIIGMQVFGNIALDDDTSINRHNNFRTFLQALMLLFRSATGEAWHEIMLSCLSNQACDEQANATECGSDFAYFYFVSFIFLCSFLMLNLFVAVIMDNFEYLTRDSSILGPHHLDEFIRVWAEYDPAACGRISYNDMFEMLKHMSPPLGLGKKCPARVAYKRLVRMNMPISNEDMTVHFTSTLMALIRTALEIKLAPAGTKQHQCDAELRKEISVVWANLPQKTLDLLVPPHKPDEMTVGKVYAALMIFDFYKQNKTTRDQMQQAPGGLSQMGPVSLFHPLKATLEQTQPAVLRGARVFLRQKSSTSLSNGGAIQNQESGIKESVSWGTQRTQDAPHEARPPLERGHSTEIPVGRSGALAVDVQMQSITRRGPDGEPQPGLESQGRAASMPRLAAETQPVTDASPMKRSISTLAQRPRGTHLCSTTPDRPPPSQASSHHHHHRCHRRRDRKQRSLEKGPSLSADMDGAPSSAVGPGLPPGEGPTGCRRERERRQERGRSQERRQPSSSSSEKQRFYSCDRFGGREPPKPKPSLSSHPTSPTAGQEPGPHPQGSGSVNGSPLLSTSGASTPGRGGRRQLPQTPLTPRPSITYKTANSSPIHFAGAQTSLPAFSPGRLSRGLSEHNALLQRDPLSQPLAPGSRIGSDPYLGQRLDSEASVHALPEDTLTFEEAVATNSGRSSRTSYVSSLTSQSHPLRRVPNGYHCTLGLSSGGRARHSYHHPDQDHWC
T2 sequence (P54284 whole entry partner): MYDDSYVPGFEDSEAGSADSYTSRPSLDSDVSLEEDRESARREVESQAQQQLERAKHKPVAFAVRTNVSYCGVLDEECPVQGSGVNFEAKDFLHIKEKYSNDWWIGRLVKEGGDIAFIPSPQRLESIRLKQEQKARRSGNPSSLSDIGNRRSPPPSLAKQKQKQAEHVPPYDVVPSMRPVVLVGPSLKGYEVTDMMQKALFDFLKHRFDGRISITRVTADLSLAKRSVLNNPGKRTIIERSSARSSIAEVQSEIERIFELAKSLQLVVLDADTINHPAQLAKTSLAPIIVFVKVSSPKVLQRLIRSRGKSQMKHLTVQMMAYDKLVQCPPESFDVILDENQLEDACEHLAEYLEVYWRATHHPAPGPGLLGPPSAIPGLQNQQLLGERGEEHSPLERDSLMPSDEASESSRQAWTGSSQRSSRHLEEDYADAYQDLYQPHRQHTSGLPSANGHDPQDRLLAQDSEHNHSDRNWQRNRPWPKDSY
T2 sequence (P54289 25-956 partner limits assumed): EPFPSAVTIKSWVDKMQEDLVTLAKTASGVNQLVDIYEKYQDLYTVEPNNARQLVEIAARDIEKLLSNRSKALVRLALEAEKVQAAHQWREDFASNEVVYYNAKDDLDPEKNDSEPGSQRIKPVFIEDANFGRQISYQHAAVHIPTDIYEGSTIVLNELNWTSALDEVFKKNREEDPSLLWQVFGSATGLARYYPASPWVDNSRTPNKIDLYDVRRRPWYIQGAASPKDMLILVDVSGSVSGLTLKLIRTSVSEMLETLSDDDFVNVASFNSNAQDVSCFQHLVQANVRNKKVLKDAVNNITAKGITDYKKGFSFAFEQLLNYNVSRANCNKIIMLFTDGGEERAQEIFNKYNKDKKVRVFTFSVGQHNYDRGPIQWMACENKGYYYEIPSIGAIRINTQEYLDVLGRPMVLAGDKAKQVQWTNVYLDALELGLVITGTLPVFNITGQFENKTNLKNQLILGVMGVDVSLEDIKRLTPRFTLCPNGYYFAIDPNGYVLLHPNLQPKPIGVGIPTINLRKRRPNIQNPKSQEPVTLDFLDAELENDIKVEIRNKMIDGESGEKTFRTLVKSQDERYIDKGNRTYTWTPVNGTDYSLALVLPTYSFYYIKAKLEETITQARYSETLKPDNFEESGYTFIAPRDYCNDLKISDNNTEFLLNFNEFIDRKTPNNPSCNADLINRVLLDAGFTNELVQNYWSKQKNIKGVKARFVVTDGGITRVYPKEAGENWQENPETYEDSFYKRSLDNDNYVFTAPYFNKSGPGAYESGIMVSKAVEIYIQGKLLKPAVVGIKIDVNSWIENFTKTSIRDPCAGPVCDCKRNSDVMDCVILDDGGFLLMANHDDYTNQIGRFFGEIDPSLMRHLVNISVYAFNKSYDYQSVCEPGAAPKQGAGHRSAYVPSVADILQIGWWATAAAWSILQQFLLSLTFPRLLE
T2 sequence (P54289 957-1103 partner limits assumed): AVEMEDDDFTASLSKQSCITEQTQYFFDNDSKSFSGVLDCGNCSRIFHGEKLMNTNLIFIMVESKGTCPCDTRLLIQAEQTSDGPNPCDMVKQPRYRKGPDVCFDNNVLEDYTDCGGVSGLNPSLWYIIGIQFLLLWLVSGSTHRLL
Procedure: A stable cell line (HEK parent) co-expressing the α1B (Cav2.2), β3 and α2δ subunits of the N-type calcium channel subunits was used. These cells were routinely grown as monolayers in low glucose-containing Dulbecco's Modified Eagle Medium supplemented with 10% FBS, 2 mM L-glutamine, 100 I.U./mL penicillin, 100 μg/mL streptomycin, 400 μg/mL G418 and 200 μg/mL Zeocin (split ratio=1:5). Cells were maintained in 5% CO2 at 37° C. Compounds of Formula (I) were prepared as 10 mM stocks in DMSO from neat compound, if available. Otherwise, the 5 or 10 mM DMSO stock solutions provided in-house were used.
Calcium mobilization responses to KCl depolarization were evaluated by measuring the intensity of calcium-mediated fluorescent signal in the presence of BD Calcium Assay Dye (BD Biosciences, Franklin Lakes, N.J., U.S.A.), utilizing a Functional Drug Screening System (FDSS) by Hamamatsu Corporation (Bridgewater, N.J. U.S.A.).
Twenty-four hr prior to assay, cells were seeded in clear-base poly-D-lysine-coated 384-well plates (BD Biosciences) at a density of 5,000 cells per well in culture medium and grown overnight in 5% CO2 at 37° C. On the day of assay, growth media were removed, and cells were loaded with BD calcium assay dye (BD Biosciences) for 35 min at 37° C. under 5% CO2 and then for 25 min at room temp. Utilizing the FDSS, cells were exposed to representative compounds of Formula (I) at varying concentrations, and intracellular calcium was measured for 5 min prior to the addition of 50 mM KCl for an additional 3 min of measurement.
IC50 values for representative compounds of Formula (I) were determined from six-point concentration-response experiments and represent the concentration of said compound required to inhibit 50% of the maximal response. Maximal fluorescence intensity (FI) achieved upon addition of 50 mM KCl was exported from the FDSS software and further analyzed using GraphPad Prism 3.02 (Graph Pad Software Inc., San Diego, Calif., U.S.A.). Data were normalized to the maximum average counts from quadruplicate wells for each condition in the presence of 50 mM KCl and to the minimum average counts in the presence of buffer. Theoretical curves were generated using nonlinear regression curve-fitting analysis of either sigmoidal concentration-response or sigmoidal concentration-response (variable slope), and the IC50 values with the best-fit curve determined by GraphPad Prism were reported.

[2] = high frequency (15th pulse of train, 5 Hz), read-out: QPatch at High Frequency % Inhibition
[3] = low frequency (1st pulse of train), read-out: QPatch at Low Frequency % Inhibition
[4] = 1 μM, high frequency (15th pulse of train, 5 Hz), read-out: QPatch at High Frequency % Inhibition
[5] = 1 μM, low frequency (1st pulse of train), read-out: QPatch at Low Frequency % Inhibition

T1 sequence (Q00975 whole entry): as the sequence (Q00975 whole entry) above
T1 sequence (P54284 whole entry partner): as the sequence (P54284 whole entry partner) above
T1 sequence (P54289 25-956 partner limits assumed): as the sequence (P54289 25-956 partner limits assumed) above
T1 sequence (P54289 957-1103 partner limits assumed): as the sequence (P54289 957-1103 partner limits assumed) above

| SMILES | IC50 [1] [nM] | inhibition at 1 µM (N-type calcium channel; [4]) [%] | inhibition at 1 µM (N-type calcium channel; [5]) [%] | other results |
| --- | --- | --- | --- | --- |
| COc1ccccc1-n1nc2c(c1-c1ccc(Cl)cc1)CN(S(=O)(=O)N1C[C@H](C)O[C@@H](C)C1)C2 (mixture of isomers) [Cpd 61, 3-(4-Chlorophenyl)-5-{[(2S,6S)-2,6-dimethylmorpholin-4-yl]sulfonyl}-2-(2-methoxyphenyl)-2,4,5,6-tetrahydropyrrolo[3,4-c]pyrazole] | 5 | – | – | inhibition at 0.1 µM (N-type calcium channel; [2]): 50%; inhibition at 0.1 µM (N-type calcium channel; [3]): 53% |
| CCc1ccccc1-n1nc2c(c1-c1ccc(Cl)cc1)CN(C(=O)c1ccncc1)C2 [Cpd 5, 3-(4-Chlorophenyl)-2-(2-ethylphenyl)-5-(pyridin-4-ylcarbonyl)-2,4,5,6-tetrahydropyrrolo[3,4-c]pyrazole] | 200 | 37 | 11 | inhibition at 0.25 µM (N-type calcium channel; [2]): 12%; inhibition at 0.25 µM (N-type calcium channel; [3]): 0% |
| CCc1ccccc1-n1nc2c(c1-c1ccc(Cl)cc1)CN(C(=O)C(F)(F)F)C2 [Cpd 6, 3-(4-Chlorophenyl)-2-(2-ethylphenyl)-5-(trifluoroacetyl)-2,4,5,6-tetrahydropyrrolo[3,4-c]pyrazole] | 180 | 23 | 16 | – |
| CS(=O)(=O)N1Cc2nn(-c3ccccc3OC(F)(F)F)c(-c3ccc(Cl)cc3)c2C1 [Cpd 20, 3-(4-Chlorophenyl)-5-(methylsulfonyl)-2-[2-(trifluoromethoxy)phenyl]-2,4,5,6-tetrahydropyrrolo[3,4-c]pyrazole] | 40 | 30 | 5 | – |
| CC(C)(C)OC(=O)NCC(=O)N1Cc2nn(-c3ccccc3OC(F)(F)F)c(-c3ccc(Cl)cc3)c2C1 [Cpd 22, tert-Butyl{2-[3-(4-chlorophenyl)-2-[2-(trifluoromethoxy)phenyl]-2,6-dihydropyrrolo[3,4-c]pyrazol-5(4H)-yl]-2-oxoethyl}carbamate] | 240 | 28 | 13 | – |
| COc1ccccc1-n1nc2c(c1-c1ccc(Cl)cc1)CN(C(=O)OC(C)(C)C)C2 [Cpd 28, tert-Butyl 3-(4-chlorophenyl)-2-(2-methoxyphenyl)-2,6-dihydropyrrolo[3,4-c]pyrazole-5(4H)-carboxylate] | 73 | – | – | inhibition at 1 µM (N-type calcium channel; read-out: QPatch at High Frequency % Inhibition): 52%; inhibition at 1 µM (N-type calcium channel; read-out: QPatch at Low Frequency % Inhibition): 25% |
| COc1ccccc1-n1nc2c(c1-c1ccc(Cl)cc1)CN(S(=O)(=O)N(C)C)C2 [Cpd 33, 3-(4-Chlorophenyl)-2-(2-methoxyphenyl)-N,N-dimethyl-2,6-dihydropyrrolo[3,4-c]pyrazole-5(4H)-sulfonamide] | 9 | 78 | 74 | – |

Continued by falling IC50 [1], values first:

| IC50 [1] [nM] | inhibition at 1 µM (N-type calcium channel; [4]) [%] | inhibition at 1 µM (N-type calcium channel; [5]) [%] | SMILES | other results |
| --- | --- | --- | --- | --- |
| 100 | 68 | 37 | CCc1ccccc1-n1nc2c(c1-c1ccc(Cl)cc1)CN(C(=O)CNC(=O)OC(C)(C)C)C2 [Cpd 11, tert-Butyl{2-[3-(4-chlorophenyl)-2-(2-ethylphenyl)-2,6-dihydropyrrolo[3,4-c]pyrazol-5 (4H)-yl]-2-oxoethyl}carbamate] | inhibition at 0.25 µM (N-type calcium channel; [2]): 31%; inhibition at 0.25 µM (N-type calcium channel; [3]): 14% |
| 93 | – | -1 | FC(F)(F)Oc1ccccc1-n1nc2c(c1-c1ccc(Cl)cc1)CN(c1ccc3nc(Cl)ccc3c1)C2 [Cpd 27, 2-Chloro-6-[3-(4-chlorophenyl)-2-[2-(trifluoromethoxy)phenyl]-2,6-dihydropyrrolo[3,4-c]pyrazol-5(4H)-yl]quinoline] | – |
| 85 | 22 | -9 | CCc1ccccc1-n1nc2c(c1-c1ccc(Cl)cc1)CN(S(C)(=O)=O)C2 [Cpd 2, 3-(4-Chlorophenyl)-2-(2-ethylphenyl)-5-(methylsulfonyl)-2,4,5,6-tetrahydropyrrolo[3,4-c]pyrazole] | – |
| 21 | 49 | 28 | COc1ccccc1-n1nc2c(c1-c1ccc(Cl)cc1)CN(S(C)(=O)=O)C2 [Cpd 30, 3-(4-Chlorophenyl)-2-(2-methoxyphenyl)-5-(methylsulfonyl)-2,4,5,6-tetrahydropyrrolo[3,4-c]pyrazole] | – |
| 21 | 83 | 74 | COc1ccccc1-n1nc2c(c1-c1ccc(Cl)cc1)CN(S(=O)(=O)C1CC1)C2 [Cpd 32, 3-(4-Chlorophenyl)-5-(cyclopropylsulfonyl)-2-(2-methoxyphenyl)-2,4,5,6-tetrahydropyrrolo[3,4-c]pyrazole] | inhibition at 0.03 µM (N-type calcium channel; [2]): -5%; inhibition at 0.03 µM (N-type calcium channel; [3]): -6%; inhibition at 0.05 µM (N-type calcium channel; [2]): 23%; inhibition at 0.05 µM (N-type calcium channel; [3]): 10%; inhibition at 0.25 µM (N-type calcium channel; [2]): 64%; inhibition at 0.25 µM (N-type calcium channel; [3]): 57% |
| 10 | – | – | COc1ccccc1-n1nc2c(c1-c1ccc(Cl)cc1)CN(S(=O)(=O)C(C)C)C2 [Cpd 31, 3-(4-Chlorophenyl)-2-(2-methoxyphenyl)-5-[(1-methylethyl)sulfonyl]-2,4,5,6-tetrahydropyrrolo[3,4-c]pyrazole] | inhibition at 0.1 µM (N-type calcium channel; [2]): 47%; inhibition at 0.1 µM (N-type calcium channel; [3]): 11%; inhibition at 0.33 µM ([1]; 0.33 μM compound, FDSS, 50 mM KCl): 94% |
